Measurements reported in publication PMC3849007 (Journal of Experimental & Clinical Cancer Research : CR, 2013).

Columns and labels:
[1] = test system: anaesthetised guinea pig; assay: Cardiovascular effects in anaesthetised guinea pig; assay type: in vivo; settings: escalating iv doses 0.25, 0.5, 1 mg/kg, 60 min apart
Description: After anaesthesia with approximately 40 to 60 mg/kg (i.p.) sodium pentobarbitone, a jugular vein was cannulated for administration of the vehicle or test substance. Arterial blood pressure (systolic, diastolic and mean) was measured via a catheter inserted into the carotid artery, heart rate was derived electronically from the pressure waveform and a sample of arterial blood determined blood gases (PO2 and PCO2), O2 saturation, standard bicarbonate (HCO3), pH and base excess before the start of the experiment. Electrocardiogram (ECG) limb electrodes recorded the standard lead II configuration and QTcB interval (calculated as QTcB = QT/(√RR)). The animal was allowed to stabilise after completion of the surgical preparation for a period of at least 15 min. Then, after a further 10 min period of continuous recording of ECG and haemodynamic variables, the test substance or vehicle was administered intravenously as 3 iv infusions with each administration separated by 60 min.
Several limitations exist in the use of mouse and rat models for the study of cardiotoxic effects in pharmacology, which regard differences in myocardial function compared to the human heart. […]

[2] = test system: anaphase bridges in BJ-EHLT fibroblasts; assay type: cell-based; settings: 0.5 μM, 24 hrs
Description: Anaphase bridges were scored by counting 400 nuclei per sample in triplicate. Histograms show the fold induction in treated versus untreated samples. Right panels show representative images of anaphase bridges in the treated samples at 63× magnification. Histograms show the mean of three independent experiments. Error bars indicate ± SD. (*P < 0.05).
As a result of chromosome ends fusion consequent to telomere damage, chromatin bridges are occasionally observed between daughter cells after mitosis (also called anaphase bridges).

[3] = biological target: telomerase; set-up: method as in PMID 15304549; settings: Trap assay; read-out: telomerase inhibition IC50; cited from earlier work
[4] = test system: human tumor xenografted nude mice; set-up: method as in PMID 19010844; settings: cited from earlier work
[5] = test system: telomere aberrations in BJ-EHLT fibroblasts; assay: Telomere FISH on metaphase spreads; assay type: cell-based, human; settings: 0.5 μM, 72 hrs
Description: For metaphase chromosome preparation cells were treated with demecolcine (Sigma, Milan, Italy) 0.1 mg/ml for 4 h and then harvested and washed in 75 mM KCl for 5 min at 37°C. After centrifugation cells were fixed in MeOH/acetic acid 3:1 overnight and then spread on slides. Hybridization with rhodamine-coupled PNA was performed as described. For each sample 20 metaphases per slice on triplicate were scored. Images of the metaphases were captured with a 100 × objective.

| SMILES | effect on QTcB interval ([1]; all doses, listed as RHPS4) | effect on heart rate ([1]; cumulative 1.75 mg/kg) | anaphase bridges frequency, fold induction vs untreated [2] | IC50 [3] [nM] | toxic deaths or body weight loss ([4]; efficacious doses, during or after treatment) | histological analysis of organs and tissues ([4]; end of treatment) | haemodynamic effect just after administration ([4]; treated vs control mice, with heart rate and cardiac output decrease) | telomere aberrations (telomere doublets, sister telomere fusions) [5] |
| --- | --- | --- | --- | --- | --- | --- | --- | --- |
| Cc1cc2c3c([n+](C)c4ccc(F)cc4c3c1)-c1cc(F)ccc1N2C [Compound 1, 3,11-Difluoro-6,8,13-trimethyl-8H-quino[4,3,2-kl]acridinium metho-sulfate] | marked and sustained increase in QTcB interval | dose-related decrease in heart rate | ten | 330 | no toxic deaths or body weight loss | no evidence of lesions or morphological alterations | marked but reversible hypotension |  |
| CC(=O)Nc1ccc2c(c1)c1cccc3c1c([n+]2C)-c1ccccc1N3C [Compound 3, 3-acetylamino-8,13-dimethyl-8H-quino[4,3,2-kl]-acridinium iodide] |  |  |  |  |  |  |  | lower effect |
